Data published in US5208245A, “Dihydropyridine derivative” (Wakunaga Seiyaku Kabushiki Kaisha, priority 1990, dated 1993).

How the values were obtained:
[1] = test system: spontaneous hypertensive rats; assay: Antihypertensive action in spontaneous hypertensive rats (SHR), oral administration; assay type: in vivo, rat; conditions: 10 mg/kg orally, (basal - lowest blood pressure)/basal x 100
Experimental: Test compounds were orally administered to spontaneous hypertensive rats (abbreviated as "SHR" hereinafter) to examine antihypertensive actions thereof.
Two to three days after the operation, the catheter was drawn out from the dorsum cervical part of the rat, and was connected to a blood-pressure measuring device (Polygraph RM-6000 manufactured by Nippon Koden K. K.). Blood pressure and heart rate were measured under the condition without anesthesia and restraint. The test compounds were suspended in 0.5% carboxymethylcellulose for oral administration. To the basal blood pressure obtained by measuring blood pressure over four hours, the lowest blood pressure decreased by the test compounds was used to determine the rate of blood-pressure decrease.
Rate of blood-pressure decrease (%)=(A-B)/A×100
The compound numbers correspond to those indicated in Examples.

[2] = test system: longitudinal muscle of guinea pig ileum; assay: Calcium antagonism: inhibition of KCl-induced contraction of ileum longitudinal muscle; conditions: Cavia porcellus, 1 h; 10^-8 M; 60 min after addition; 80 mM KCl contraction = 100%; 37° C.; read-out: Inhibition rate
Experimental: A guinea pig having a body weight ranging from 350 g to 400 g was exsanguinated to death and laparotomized, to extract ileum. According to the method of Rosenberger et al. (Rosenberger et al., Can. J. Physiol. Pharmacol. 57, 333-347 (1979)), a sample of longitudinal muscle was prepared from the ileum. Then, a mixed gas consisting of 95% oxygen and 5% carbon dioxide was aerated, while the atmosphere was maintained at 37° C. The sample of the longitudinal muscle of the extracted ileum was placed in a magnus tube containing 20 ml of Tyrode solution, and suspended at 0.5 g of tension. As a comparison, 80 mM KCl was administered to contract the longitudinal muscle. Subsequently, 60 min after the addition of each of the test compounds (10^-8 M), the contraction with KCl was again induced. The level of the contraction obtained by the administration of 80 mM KCl was assigned to 100%, and the inhibition rate thereto was determined.

[3] = Acute toxicity test, intravenous, mice; conditions: mouse, in vivo, male ddY mice, observed two weeks
Experimental: Male ddY mice (5-7 weeks old) were divided into groups each consisting of 4 mice. The test compounds were dissolved in physiological saline containing 50% polyethylene glycol 400, which was then administered intravenously to the mice, and they were put under observation over two weeks. The analysis was done following the Van der Worden method.

Row | Compound | Rate of blood pressure decrease [1] | inhibition at 0.01 µM [2] | LD50 at 336 h [3]
1 | COC(=O)C1=C(C)NC(C)=C(C(=O)OC)C1c1ccccc1[N+](=O)[O-] [Nifedipine, reference compound] | 24.3% | 98% | 
2 | CCOC(=O)C1=C(C)NC(C)=C(C(=O)OC2CC(C)(C)Oc3ccccc32)C1c1cccc(Cl)c1Cl (stereo not drawn) [Compound 27, 3-(3,4-dihydro-2,2-dimethyl-2H-benzo[b]pyran-4-yl)5-ethyl 1,4-dihydro-2,6-dimethyl-4-(2,3-dichlorophenyl)pyridine-3,5-dicarboxylate] | 36.9% | 42% | 
3 | COC(=O)C1=C(C)NC(C)=C(C(=O)OC2CCOc3ccccc32)C1c1cccc(Cl)c1Cl (stereo not drawn) [Compound 3] | 35.1% | 81% | 
4 | COC(=O)C1=C(C)NC(C)=C(C(=O)OC2CC(C)(C)Oc3ccccc32)C1c1cccc(Cl)c1Cl (stereo not drawn) [Compound 21, 3-(3,4-dihydro-2,2-dimethyl-2H-benzo[b]pyran-4-yl)5-methtyl 1,4-dihydro-2,6-dimethyl-4-(2,3-dichorophenyl)pyridine-3,5-dicarboxylate] | 37.3% | 69% | 29.7 mg/kg
